Results reported in paper PMC11879280, “Antimicrobial activity of peptoids against Metallo-β-lactamase-producing Klebsiella pneumoniae, Acinetobacter baumannii, Pseudomonas aeruginosa, and other WHO priority pathogens, including Candida auris” (Journal of Applied Microbiology, 2025).

Legend:
K. pneumoniae JIE2713 [1] = settings: K. pneumoniae JIE2713; CAMHB, 37°C, 16–20 h
Procedure: (§1) Briefly, bacteria were suspended in cation-adjusted Mueller–Hinton broth (CAMHB; Oxoid, UK) for antibiotics, or MHB (Oxoid, UK) for peptidomimetics to obtain 5 × 10^5 colony forming unit (CFU) ml^−1. […] Positive controls contained only microbes, and blanks contained only media. Microbial suspensions (100 µl) were added to wells, plates wrapped, and incubated at 37°C, 120 rpm for 16–20 h. After incubation, suspensions were removed, log10 diluted, and plated on Trypticase Soya Agar with phosphatidylcholine and Tween 80 to determine minimum bactericidal or fungicidal concentration (MBC or MFC). […] Geometric mean MIC of the peptoids were calculated to evaluate the broad overview of antimicrobial activity across the pathogens.

En. cloacae 003 = settings: En. cloacae 003; CAMHB, 37°C, 16–20 h
Procedure: as §1

E. coli 005 = settings: E. coli 005; CAMHB, 37°C, 16–20 h
Procedure: as §1

A. baumannii 005 = settings: A. baumannii 005; CAMHB, 37°C, 16–20 h
Procedure: as §1

A. baumannii 006 = settings: A. baumannii 006; CAMHB, 37°C, 16–20 h
Procedure: as §1

P. aeruginosa AR-1270 = settings: P. aeruginosa AR-1270; CAMHB, 37°C, 16–20 h
Procedure: as §1

E. coli 0010 = settings: E. coli 0010; CAMHB, 37°C, 16–20 h
Procedure: as §1

En. cloacae 001 = settings: En. cloacae 001; CAMHB, 37°C, 16–20 h
Procedure: as §1

K. pneumoniae JIE2709 [2] = settings: K. pneumoniae JIE2709; CAMHB, 37°C, 16–20 h
Procedure: as §1

A. baumannii 008 = settings: A. baumannii 008; CAMHB, 37°C, 16–20 h
Procedure: as §1

E. coli 0015 = settings: E. coli 0015; CAMHB, 37°C, 16–20 h
Procedure: as §1

K. pneumoniae JIE4212 = settings: K. pneumoniae JIE4212; CAMHB, 37°C, 16–20 h
Procedure: as §1

A. baumannii 007 = settings: A. baumannii 007; CAMHB, 37°C, 16–20 h
Procedure: as §1

E. coli 0011 = settings: E. coli 0011; CAMHB, 37°C, 16–20 h
Procedure: as §1

P. aeruginosa 33 = settings: P. aeruginosa 33; CAMHB, 37°C, 16–20 h
Procedure: as §1

A. baumannii ATCC 19 606 = settings: A. baumannii ATCC 19 606; CAMHB, 37°C, 16–20 h
Procedure: as §1

En. cloacae 005 = settings: En. cloacae 005; CAMHB, 37°C, 16–20 h
Procedure: as §1

K. pneumoniae JIE2713 [3] = experiment: Checkerboard microdilution synergy test; format: cell-based, Klebsiella pneumoniae
Procedure: (§2) Then, 10 µl of bacteria (5 × 10^6 CFU ml^−1) or C. auris (2.5 × 10^4 CFU ml^−1) were added to each well, except for the sterility control well. […] The sterility control wells contained only MHB (or RPMI in case of C. auris), and the growth control contained 110 µl of microbial inoculum with no antimicrobials. Subsequently, the plates were incubated for 18- 24 hours at 36 ± 1 °C.
(§3) The FIC for each combination interaction was calculated as follows:
(§4) Then, the summation of FIC (ƩFIC) was calculated for each antimicrobial combination as follows: ƩFIC = FICA + FICB. […] All antimicrobial synergy experiments were repeated in at least two independent runs.

P. aeruginosa 216 = settings: P. aeruginosa 216; CAMHB, 37°C, 16–20 h
Procedure: as §1

K. pneumoniae JIE2709 [4] = experiment: Checkerboard microdilution synergy test; format: cell-based, Klebsiella pneumoniae
Procedure: as §2, §3, §4

[5] = Klebsiella pneumoniae, read-out: MIC of DrugB (alone, checkerboard)

## CNC(C)C1CCC(N)C(OC2C(N)CC(N)C(OC3OCC(C)(O)C(NC)C3O)C2O)O1 (stereo not shown) [Gen, gentamicin, reference compound]
K. pneumoniae JIE2713 [1]
  MIC of antibiotics: >128 µg/mL
En. cloacae 003
  MIC of antibiotics: 0.5 µg/mL
E. coli 005
  MIC of antibiotics: 0.25 µg/mL
A. baumannii 005
  MIC of antibiotics: >128 µg/mL
A. baumannii 006
  MIC of antibiotics: >128 µg/mL
P. aeruginosa AR-1270
  MIC of antibiotics: >128 µg/mL
E. coli 0010
  MIC of antibiotics: 0.25 µg/mL
En. cloacae 001
  MIC of antibiotics: 4 µg/mL
K. pneumoniae JIE2709 [2]
  MIC of antibiotics: 0.5 µg/mL
A. baumannii 008
  MIC of antibiotics: >128 µg/mL
E. coli 0015
  MIC of antibiotics: 0.5 µg/mL
K. pneumoniae JIE4212
  MIC of antibiotics: 128 µg/mL
A. baumannii 007
  MIC of antibiotics: >128 µg/mL
E. coli 0011
  MIC of antibiotics: 0.5 µg/mL
P. aeruginosa 33
  MIC of antibiotics: >128 µg/mL
A. baumannii ATCC 19 606
  MIC of antibiotics: 4 µg/mL
En. cloacae 005
  MIC of antibiotics: 0.25 µg/mL
K. pneumoniae JIE2713 [3]; [5]
  MIC: 1020 µg/mL
K. pneumoniae JIE2713 [3]; in combination with TM8
  FICDrugB: 0.5
  MF of antibiotic (modulation factor): 2
  MIC of DrugB + TM8: 512 µg/mL

## C[C@@H](O)[C@H]1C(=O)N2C(C(=O)O)=C(S[C@@H]3CN[C@H](C(=O)N(C)C)C3)[C@H](C)[C@H]12 [Mer, meropenem, reference compound]
K. pneumoniae JIE2713 [1]
  MIC of antibiotics: >64 µg/mL
En. cloacae 003
  MIC of antibiotics: 1 µg/mL
E. coli 005
  MIC of antibiotics: 2 µg/mL
A. baumannii 005
  MIC of antibiotics: >64 µg/mL
A. baumannii 006
  MIC of antibiotics: 64 µg/mL
P. aeruginosa AR-1270
  MIC of antibiotics: >64 µg/mL
E. coli 0010
  MIC of antibiotics: 2 µg/mL
En. cloacae 001
  MIC of antibiotics: 1 µg/mL
K. pneumoniae JIE2709 [2]
  MIC of antibiotics: 32 µg/mL
A. baumannii 008
  MIC of antibiotics: 64 µg/mL
P. aeruginosa 216
  MIC of antibiotics: 1 µg/mL
E. coli 0015
  MIC of antibiotics: 2 µg/mL
K. pneumoniae JIE4212
  MIC of antibiotics: 1 µg/mL
A. baumannii 007
  MIC of antibiotics: 64 µg/mL
E. coli 0011
  MIC of antibiotics: 1 µg/mL
P. aeruginosa 33
  MIC of antibiotics: 4 µg/mL
A. baumannii ATCC 19 606
  MIC of antibiotics: 0.5 µg/mL
En. cloacae 005
  MIC of antibiotics: 0.25 µg/mL
K. pneumoniae JIE2709 [4]; [5]
  MIC: 32 µg/mL
K. pneumoniae JIE2709 [4]; in combination with TM8
  FICDrugB: 0.125
  MF of antibiotic (modulation factor): 8
  MIC of DrugB + TM8: 4 µg/mL

## colistin sulfate [reference compound]
K. pneumoniae JIE2713 [1]
  MIC of antibiotics: 1 µg/mL
En. cloacae 003
  MIC of antibiotics: 1 µg/mL
E. coli 005
  MIC of antibiotics: 0.25 µg/mL
A. baumannii 005
  MIC of antibiotics: 0.25 µg/mL
A. baumannii 006
  MIC of antibiotics: 0.25 µg/mL
P. aeruginosa AR-1270
  MIC of antibiotics: 1 µg/mL
E. coli 0010
  MIC of antibiotics: 2 µg/mL
En. cloacae 001
  MIC of antibiotics: 2 µg/mL
K. pneumoniae JIE2709 [2]
  MIC of antibiotics: 1 µg/mL
A. baumannii 008
  MIC of antibiotics: 1 µg/mL
P. aeruginosa 216
  MIC of antibiotics: 16 µg/mL
E. coli 0015
  MIC of antibiotics: 0.25 µg/mL
K. pneumoniae JIE4212
  MIC of antibiotics: 1 µg/mL
A. baumannii 007
  MIC of antibiotics: 1 µg/mL
E. coli 0011
  MIC of antibiotics: 2 µg/mL
P. aeruginosa 33
  MIC of antibiotics: 1 µg/mL
A. baumannii ATCC 19 606
  MIC of antibiotics: 2 µg/mL
En. cloacae 005
  MIC of antibiotics: 2 µg/mL

## polymyxin B [PmB, reference compound]
K. pneumoniae JIE2713 [1]
  MIC of antibiotics: 1 µg/mL
En. cloacae 003
  MIC of antibiotics: 1 µg/mL
E. coli 005
  MIC of antibiotics: 0.25 µg/mL
A. baumannii 005
  MIC of antibiotics: 0.25 µg/mL
A. baumannii 006
  MIC of antibiotics: 0.25 µg/mL
P. aeruginosa AR-1270
  MIC of antibiotics: 2 µg/mL
E. coli 0010
  MIC of antibiotics: 2 µg/mL
En. cloacae 001
  MIC of antibiotics: 2 µg/mL
K. pneumoniae JIE2709 [2]
  MIC of antibiotics: 1 µg/mL
A. baumannii 008
  MIC of antibiotics: 1 µg/mL
P. aeruginosa 216
  MIC of antibiotics: 16 µg/mL
E. coli 0015
  MIC of antibiotics: 0.25 µg/mL
K. pneumoniae JIE4212
  MIC of antibiotics: 1 µg/mL
A. baumannii 007
  MIC of antibiotics: 1 µg/mL
E. coli 0011
  MIC of antibiotics: 2 µg/mL
P. aeruginosa 33
  MIC of antibiotics: 2 µg/mL
A. baumannii ATCC 19 606
  MIC of antibiotics: 2 µg/mL
En. cloacae 005
  MIC of antibiotics: 2 µg/mL
